Test results taken from patent publication US7338950B2, “Amide compounds as ion channel ligands and uses thereof” (Renovis, Inc., priority 2003, dated 2008).

What follows are molecules tested on VR1 receptor (293 cells expressing capsaicin-insensitive VR1 receptor variants) (assay: High throughput screening of VR1 antagonists using a calcium imaging assay (Fura2, pH 5.1 stimulus)). Conditions: 1 uM compound; inhibition of calcium ion influx.
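Note: Fura2 ratiometric fluorescence read every 4 s over 3 min, response taken as peak ratio minus baseline before pre-treatment, compound pre-treatment preceding acid challenge.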

SMILES | % Inhibition @ 1 uM
O=C(Nc1ccc2c(c1)OCCO2)c1ccc(-c2ncccc2Cl)cc1 [Compound 1018] | ++ (compound exhibited 25-50% inhibition of calcium ion influx induced by capsaicin stimulation)
COc1cccc(NC(=O)c2ccc(-c3ncccc3Cl)cc2)c1 [Compound 1019] | + (compound exhibited 0-25% inhibition of calcium ion influx induced by capsaicin stimulation)
O=C(Nc1ccccc1)c1ccc(-c2ncccc2Cl)cc1 [Compound 1020] | + (compound exhibited 0-25% inhibition of calcium ion influx induced by capsaicin stimulation)
O=C(Nc1ccc2[nH]ccc2c1)c1ccc(-c2ncccc2Cl)cc1 [Compound 1021] | ++++ (compound exhibited 75% or greater inhibition of calcium ion influx induced by capsaicin stimulation)
COc1ccc(NC(=O)c2ccc(-c3ncccc3Cl)cc2)cc1 [Compound 1022] | ++ (compound exhibited 25-50% inhibition of calcium ion influx induced by capsaicin stimulation)
O=C(Nc1ccncc1)c1ccc(-c2ncccc2Cl)cc1 [Compound 1024] | ++++ (compound exhibited 75% or greater inhibition of calcium ion influx induced by capsaicin stimulation)
O=C(Nc1cccnc1)c1ccc(-c2ncccc2Cl)cc1 [Compound 1025] | ++++ (compound exhibited 75% or greater inhibition of calcium ion influx induced by capsaicin stimulation)
O=C(Nc1cc[nH]n1)c1ccc(-c2ncccc2Cl)cc1 [Compound 1026] | + (compound exhibited 0-25% inhibition of calcium ion influx induced by capsaicin stimulation)
N#Cc1ccccc1NC(=O)c1ccc(-c2ncccc2Cl)cc1 [Compound 1028] | + (compound exhibited 0-25% inhibition of calcium ion influx induced by capsaicin stimulation)
O=C(Nc1cccc(Cl)c1)c1ccc(-c2ncccc2Cl)cc1 [Compound 1029] | + (compound exhibited 0-25% inhibition of calcium ion influx induced by capsaicin stimulation)
COc1ccccc1NC(=O)c1ccc(-c2ncccc2Cl)cc1 [Compound 1030] | ++++ (compound exhibited 75% or greater inhibition of calcium ion influx induced by capsaicin stimulation)
O=C(Nc1ccccc1Cl)c1ccc(-c2ncccc2Cl)cc1 [Compound 1032] | + (compound exhibited 0-25% inhibition of calcium ion influx induced by capsaicin stimulation)
O=C(Nc1ccc(Cl)cc1Cl)c1ccc(-c2ncccc2Cl)cc1 [Compound 1033] | + (compound exhibited 0-25% inhibition of calcium ion influx induced by capsaicin stimulation)
COc1ccc(NC(=O)c2ccc(-c3ncccc3Cl)cc2)cc1Cl [Compound 1034] | + (compound exhibited 0-25% inhibition of calcium ion influx induced by capsaicin stimulation)
O=C(Nc1ccc(C(F)(F)F)cc1)c1ccc(-c2ncccc2Cl)cc1 [Compound 1035] | ++++ (compound exhibited 75% or greater inhibition of calcium ion influx induced by capsaicin stimulation)
O=C(Nc1ccc(Cl)c(C(F)(F)F)c1)c1ccc(-c2ncccc2Cl)cc1 [Compound 1037] | +++ (compound exhibited 50-75% inhibition of calcium ion influx induced by capsaicin stimulation)
O=C(Nc1cccc(Br)c1)c1ccc(-c2ncccc2Cl)cc1 [Compound 1038] | + (compound exhibited 0-25% inhibition of calcium ion influx induced by capsaicin stimulation)
N#Cc1cccc(NC(=O)c2ccc(-c3ncccc3Cl)cc2)c1 [Compound 1039] | + (compound exhibited 0-25% inhibition of calcium ion influx induced by capsaicin stimulation)

SMILES | % Inhibition @ 1 uM
O=C(Nc1ccccc1CCO)c1ccc(-c2ncccc2Cl)cc1 [Compound 1040] | +++ (compound exhibited 50-75% inhibition of calcium ion influx induced by capsaicin stimulation)
CC(C)(C)c1ccc(NC(=O)c2ccc(-c3ncccc3Cl)cc2)cc1 [Compound 1041] | ++++ (compound exhibited 75% or greater inhibition of calcium ion influx induced by capsaicin stimulation)
CC(C)c1ccc(NC(=O)c2ccc(-c3ncccc3Cl)cc2)cc1 [Compound 1042] | ++++ (compound exhibited 75% or greater inhibition of calcium ion influx induced by capsaicin stimulation)
CCCCc1ccc(NC(=O)c2ccc(-c3ncccc3Cl)cc2)cc1 [Compound 1043] | ++ (compound exhibited 25-50% inhibition of calcium ion influx induced by capsaicin stimulation)
O=C(Nc1ccc(C2CCCCC2)cc1)c1ccc(-c2ncccc2Cl)cc1 [Compound 1044] | ++++ (compound exhibited 75% or greater inhibition of calcium ion influx induced by capsaicin stimulation)
COc1cc(NC(=O)c2ccc(-c3ncccc3Cl)cc2)cc(C(F)(F)F)c1 [Compound 1045] | ++ (compound exhibited 25-50% inhibition of calcium ion influx induced by capsaicin stimulation)
O=C(Nc1cccnc1Cl)c1ccc(-c2ncccc2Cl)cc1 [Compound 1047] | ++ (compound exhibited 25-50% inhibition of calcium ion influx induced by capsaicin stimulation)
O=C(Nc1ccc(Cl)nc1)c1ccc(-c2ncccc2Cl)cc1 [Compound 1048] | + (compound exhibited 0-25% inhibition of calcium ion influx induced by capsaicin stimulation)
COc1ccc(NC(=O)c2ccc(-c3ncccc3Cl)cc2)cn1 [Compound 1049] | + (compound exhibited 0-25% inhibition of calcium ion influx induced by capsaicin stimulation)
O=C(Nc1ccnc(Cl)c1)c1ccc(-c2ncccc2Cl)cc1 [Compound 1050] | ++++ (compound exhibited 75% or greater inhibition of calcium ion influx induced by capsaicin stimulation)
O=C(Nc1ccc2c(c1)OCO2)c1ccc(-c2ncccc2Cl)cc1 [Compound 1051] | + (compound exhibited 0-25% inhibition of calcium ion influx induced by capsaicin stimulation)
Cc1cc(NC(=O)c2ccc(-c3ncccc3Cl)cc2)nc(C)n1 [Compound 1052] | + (compound exhibited 0-25% inhibition of calcium ion influx induced by capsaicin stimulation)
O=C(Nc1ccc2c(c1)Cc1ccccc1-2)c1ccc(-c2ncccc2Cl)cc1 [Compound 1053] | ++ (compound exhibited 25-50% inhibition of calcium ion influx induced by capsaicin stimulation)
Cc1cc(C)nc(NC(=O)c2ccc(-c3ncccc3Cl)cc2)c1 [Compound 1054] | + (compound exhibited 0-25% inhibition of calcium ion influx induced by capsaicin stimulation)
O=C(Nc1nccs1)c1ccc(-c2ncccc2Cl)cc1 [Compound 1055] | + (compound exhibited 0-25% inhibition of calcium ion influx induced by capsaicin stimulation)
CC(C)(CO)NC(=O)c1ccc(-c2ncccc2Cl)cc1 [Compound 1058] | + (compound exhibited 0-25% inhibition of calcium ion influx induced by capsaicin stimulation)
CN(C)c1cccc(NC(=O)c2ccc(-c3ncccc3Cl)cc2)c1 [Compound 1060] | ++++ (compound exhibited 75% or greater inhibition of calcium ion influx induced by capsaicin stimulation)
